{"source": "patent US20090143416A1", "about": "“Method of Inducing Tolerance of Plants Against Bacterioses” (priority 2006, published 2009)", "key": {"Xathomonas ssp": {"tested_on": "Xathomonas ssp", "assay": "Preventive action on tomatoes against Xathomonas ssp (field trial)", "type": "in vivo", "settings": "under the trial conditions (tomato field trial); assumed, not tested alone", "method": "The active compounds used were applied as commercially available formulations.\n(§1) The visually determined percentages of infected leaf areas were converted into efficacies in % of the untreated control:\nThe efficacy (E) is calculated as follows using Abbot's formula: […]\nα corresponds to the fungal infection of the treated plants in % and β corresponds to the fungal infection of the untreated (control) plants in %\n(§2) An efficacy of 0 means that the infection level of the treated plants corresponds to that of the untreated control plants; an efficacy of 100 means that the treated plants were not infected.\nThe trial was conducted under field conditions. Tomato plants of variety Carmen at a height of app. 10 cm were planted and grown under standard conditions with adequate supply of water and nutrients. After 18 days a first application of active compounds was made, which was repeated five times every 5 to 8 days. No other compounds were applied for pathogen control. Infection with pathogens occurred. Each treatment consisted of four replicants in a randomized block design. The disease incidences were evaluated 46 days after the first application (Xathomonas ssp.)."}, "Erwinia carotovora": {"tested_on": "Erwinia carotovora", "assay": "Preventive action on potatoes against Erwinia carotovora (field trial)", "type": "in vivo", "settings": "under the trial conditions (potato field trial); assumed, not tested alone", "from_the_text": "as §1, §2"}}}
{"compound": "[Cl-].[Cu+2].[Cu+2].[OH-].[OH-].[OH-]", "note": "[copper, copper oxychloride]", "values": [{"measurement": "efficacy against Xathomonas", "setting": "Xathomonas ssp", "result": "very close to zero"}, {"measurement": "efficacy against Erwinia carotovora", "setting": "Erwinia carotovora", "result": "very close to zero"}]}
